# In patent US10214531B2 (Institute for Drug Discovery, LLC, priority 2013, dated 2019):
# Structures can show the parent of a compound that is named as a salt.
# Target: recombinant human AMCase (Homo sapiens, UniProt Q9BZP6)
# Assay: Human AMCase Activity Assay
# Type: biochemical
# Details: recombinant hAMCase, 4-methylumbelliferyl chitobioside substrate, citrate buffer pH 5.2, 37° C., 60 minutes; read-out: Activity (IC50 value key)
# Procedure: Human AMCase Activity Assay
# The assay was run in the 96-well plate format, each reaction in the total volume of 100 μl. 4-Methylumbelliferyl B-D-N,N′ diacetylchitobioside hydrate was used as a substrate for the enzyme. Upon hydrolysis by AMCase, the substrate releases 4-methylumbelliferyl (4MU), when ionized in basic pH, emits fluorescence of 460 nm.
# Briefly, 40 μl of a substrate was added to each well, followed by 10 μl of compound dilution and 50 μl of hAMCase recombinant enzyme solution. The reaction was carried out in citrate buffer, pH 5.2, in the dark, at 37° C. for 60 minutes with shaking.
# Chain of recombinant human AMCase (Q9BZP6 22-476): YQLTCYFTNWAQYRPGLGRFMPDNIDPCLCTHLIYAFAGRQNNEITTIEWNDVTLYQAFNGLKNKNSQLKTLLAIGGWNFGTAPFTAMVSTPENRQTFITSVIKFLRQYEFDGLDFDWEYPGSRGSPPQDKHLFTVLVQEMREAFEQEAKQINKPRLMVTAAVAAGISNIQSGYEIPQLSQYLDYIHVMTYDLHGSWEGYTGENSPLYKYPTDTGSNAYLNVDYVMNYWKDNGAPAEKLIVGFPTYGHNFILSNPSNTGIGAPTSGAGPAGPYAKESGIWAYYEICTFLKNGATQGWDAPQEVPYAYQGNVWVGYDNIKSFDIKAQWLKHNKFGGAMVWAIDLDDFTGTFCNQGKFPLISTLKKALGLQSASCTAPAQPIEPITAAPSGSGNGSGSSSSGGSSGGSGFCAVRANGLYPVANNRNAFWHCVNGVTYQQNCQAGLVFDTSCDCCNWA
row,SMILES,IC50 [µM]
1,"CN(CCc1ccc(Br)cc1)C1CCN(c2nc(N)n(C)n2)CC1 [Example 166, 1-(5-amino-1-methyl-1H-1,2,4-triazol-3-yl)-N-(4-bromophenethyl)-N-methylpiperidin-4-amine]",> 100
2,"Nc1n[nH]c(N2CCC(N(CCc3ccc(Cl)cc3)Cc3ccc(-c4ccccc4)cc3)CC2)n1 [Example 111, N-([1,1′-biphenyl]-4-ylmethyl)-1-(3-amino-1H-1,2,4-triazol-5-yl)-N-(4-chlorophenethyl) piperidin-4-amine]",< 0.1
3,"CCCC1(NCCc2ccc(Br)cc2)CCN(c2nc(N)n[nH]2)CC1 [Example 247, 1-(3-amino-1H-1,2,4-triazol-5-yl)-N-(4-bromophenethyl)1-4-propyl piperidin-4-amine, dihydrochloride]",1 to 10
4,"Nc1n[nH]c(N2CC3CN(CCOc4ccc(Br)cc4)CC3C2)n1 (centres unmarked) [Example 29, 5-(5-(2-(4-bromophenoxy)ethyl)hexahydropyrrolo[3,4-c]pyrrol-2(1H)-yl)-1H-1,2,4-triazol-3-amine]",> 100
5,"Nc1n[nH]c(N2CCN(CCOc3ccccc3C(F)(F)F)CC2)n1 [Example 193, 5-(4-(2-(2-(trifluoromethyl)-phenoxy)ethyl)piperazin-1-yl)-1H-1,2,4-triazol-3-amine]",> 100
6,"Cn1nc(N)nc1N1CCN(CCOc2ccc(Br)cc2)CC1 [Example 27-2, 5-(4-(2-(4-bromophenoxy)ethyl)piperazin-1-yl)-1-methyl-1H-1,2,4-triazol-3-amine]",> 100
7,"Nc1n[nH]c(N2CCC(N(CCc3ccc(Cl)cc3)Cc3ccccc3Br)CC2)n1 [Example 127, 1-(3-amino-1H-1,2,4-triazol-5-yl)-N-(2-bromobenzyl)-N-(4-chlorophenethyl)piperidin-4-amine]",< 0.1
8,"CN(C)C(CC(=O)N1CCN(c2nc(N)n[nH]2)CC1)c1ccccc1F (centres unmarked) [Example 242, 1-(4-(3-amino-1H-1,2,4-triazol-5-yl)piperazin-1-yl)-3-(dimethylamino)-3-(2-fluorophenyl)propan-1-one dihydrochloride]",> 100
9,"Nc1nc(N2CCC(N(CCc3ccc(Cl)cc3)Cc3ccc(F)cc3Cl)CC2)n[nH]1 [Example 145, 1-(3-amino-1H-1,2,4-triazol-5-yl)-N-(2-chloro-4-fluorobenzyl)-N-(4-chlorophenethyl)piperidin-4-amine]",< 0.1
10,"Nc1n[nH]c(N2CCCN(CCOc3ccc(Br)cc3)CC2)n1 [Example 28, 5-{4-[2-(4-bromophenoxy)ethyl]-[1,4]-diazepan-1-yl}-1H-1,2,4-triazol-3-amine]",> 100
11,"Nc1n[nH]c(N2CCN(C(=O)COc3ccc4ccccc4c3)CC2)n1 [Example 25, 1-(4-(3-amino-1H-1,2,4-triazol-5-yl)piperazin-1-yl)-2-(naphthalen-2-yloxy) ethanone]",> 100
12,"Nc1n[nH]c(N2CCN(CCOCc3ccccc3)CC2)n1 [Example 80, 5-(4-(2-(benzyloxy)ethyl)piperazin-1-yl)-1H-1,2,4-triazol-3-amine]",> 100

# Next, values leading:
row,IC50 [µM],SMILES
1,< 0.1,"Nc1n[nH]c(N2CCC(N(CCc3ccc(Cl)cc3)Cc3ccccc3CO)CC2)n1 [Example 164, (2-(((1-(3-amino-1H-1,2,4-triazol-5-yl)piperidin-4-yl)(4-chlorophenethyl)amino)methyl)phenyl)methanol dihydrochloride]"
2,> 100,"Nc1n[nH]c(N2CCC(C(=O)NCc3ccc(OC(F)(F)F)cc3)CC2)n1 [Example 205, 1-(3-amino-1H-1,2,4-triazol-5-yl)-N-(4-(trifluoromethoxy)benzyl)piperidine-4-carboxamide]"
3,> 100,"COc1ccc(CNC(=O)C2CCN(c3nc(N)n[nH]3)CC2)c(OC)c1 [Example 201, 1-(3-amino-1H-1,2,4-triazol-5-yl)-N-(2,4-dimethoxybenzyl)piperidine-4-carboxamide]"
4,> 100,"Cc1ccccc1C(=O)NCC1CCN(c2nc(N)n[nH]2)CC1 [Example 212, N-((1-(3-amino-1H-1,2,4-triazol-5-yl)piperidin-4-yl)methyl)-2-methylbenzamide]"
5,> 100,"Nc1n[nH]c(N2CCC(C(=O)NCc3cc(C(F)(F)F)cc(C(F)(F)F)c3)CC2)n1 [Example 255, 1-(3-amino-1H-1,2,4-triazol-5-yl)-N-(3,5-bis(trifluoromethyl)benzyl)piperidine-4-carboxamide]"
6,< 0.1,"Nc1n[nH]c(N2CCC(NCCc3ccc(Cl)cc3)C(CCCO)C2)n1 (centres unmarked) [Example 251, 3-(1-(3-amino-1H-1,2,4-triazol-5-yl)-4-((4-chlorophenethyl)amino)piperidin-3-yl)propan-1-ol dihydrochloride]"
7,1 to 10,"CN(CCc1c(Cl)cccc1Cl)C1CCN(c2nc(N)n[nH]2)CC1 [Example 184, 1-(3-amino-1H-1,2,4-triazol-5-yl)-N-(2,6-dichlorophenethyl)-N-methylpiperidin-4-amine]"
8,> 100,"Nc1n[nH]c(N2CCC(NC(=O)Nc3ccc(Cl)cc3)CC2)n1 [Example 67, 1-(1-(3-amino-1H-1,2,4-triazol-5-yl)piperidin-4-yl)-3-(4-chlorophenyl)urea]"
9,1 to 10,"CC1CN(c2nc(N)n[nH]2)CCC1NS(=O)(=O)Cc1ccc(Br)cc1 (centres unmarked) [Example 244, N-(1-(3-amino-1H-1,2,4-triazol-5-yl)-3-methylpiperidin-4-yl)-1-(4-bromophenyl)methanesulfonamide]"
10,< 0.1,"CC(Cc1ccc(Cl)cc1)N(C)C1CCN(c2nc(N)n[nH]2)CC1 (centres unmarked) [Example 200, 1-(3-amino-1H-1,2,4-triazol-5-yl)-N-(1-(4-chlorophenyl)propan-2-yl)-N-methylpiperidin-4-amine]"
11,0.1 to 1,"CC1CN(c2nc(N)n[nH]2)CCC1NCCc1ccc(Cl)cc1 (mixture of isomers) [Example 132, 1-(3-amino-1H-1,2,4-triazol-5-yl)-N-(4-chlorophenethyl)-3-methylpiperidin-4-amine dihydrochloride (4:1 diastereoisomeric mixture)]"
12,10 to 100,"COc1ccc(CCN(C)C2CCN(c3nc(N)n[nH]3)CC2)cc1OC [Example 173, 1-(3-amino-1H-1,2,4-triazol-5-yl)-N-(3,4-dimethoxyphenethyl)-N-methylpiperidin-4-amine]"
13,> 100,"Nc1n[nH]c(N2CCC(C(=O)NCc3ccc(F)cc3)CC2)n1 [Example 49, 1-(3-amino-1H-1,2,4-triazol-5-yl)-N-(4-fluorobenzyl)piperidine-4-carboxamide]"
14,0.1 to 1,"CCCC1CN(c2nc(N)n[nH]2)CCC1NCCc1ccc(Cl)cc1 (single isomer, unassigned) [Example 234, 1-(3-amino-1H-1,2,4-triazol-5-yl)-N-(4-chlorophenethyl)-3-propylpiperidin-4-amine]"
15,10 to 100,"Cc1ccccc1CCN(C)C1CCN(c2nc(N)n[nH]2)CC1 [Example 179, 1-(3-amino-1H-1,2,4-triazol-5-yl)-N-methyl-N-(2-methylphenethyl)piperidin-4-amine]"
16,> 100,Nc1n[nH]c(N2CCC(CNC(=O)Nc3cccc(Cl)c3)CC2)n1 [Example 218]
17,> 100,"Nc1n[nH]c(N2CCC(CNC(=O)c3ccc(F)c(F)c3)CC2)n1 [Example 220, N-((1-(3-amino-1H-1,2,4-triazol-5-yl)piperidin-4-yl)methyl)-3,4-difluorobenzamide]"
